{"source": "paper PMC6722883", "about": "(FEBS Open Bio, 2019)", "key": {"[1]": {"target": "T1, α3β4 nAChR expressed in Xenopus oocytes (Rattus norvegicus, UniProt P04757+P12392)", "T1 construct": "expressed in transfected cells; host or cells: Xenopus oocytes injected with cRNA", "T1 sequence (P04757 26-499 limits assumed)": "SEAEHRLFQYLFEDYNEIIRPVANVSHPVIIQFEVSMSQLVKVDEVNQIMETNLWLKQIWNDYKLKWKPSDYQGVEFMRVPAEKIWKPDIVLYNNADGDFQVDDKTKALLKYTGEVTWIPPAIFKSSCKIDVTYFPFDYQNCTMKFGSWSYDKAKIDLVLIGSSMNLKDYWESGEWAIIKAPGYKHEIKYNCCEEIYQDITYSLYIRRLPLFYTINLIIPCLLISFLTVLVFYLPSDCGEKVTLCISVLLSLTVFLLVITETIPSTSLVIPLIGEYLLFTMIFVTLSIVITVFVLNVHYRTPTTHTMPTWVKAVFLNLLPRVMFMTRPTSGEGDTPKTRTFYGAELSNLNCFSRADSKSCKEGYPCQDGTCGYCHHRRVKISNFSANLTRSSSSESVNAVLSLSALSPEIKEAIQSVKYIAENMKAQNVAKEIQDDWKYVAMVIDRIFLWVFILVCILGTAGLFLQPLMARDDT", "T1 sequence (P12392 21-495 limits assumed)": "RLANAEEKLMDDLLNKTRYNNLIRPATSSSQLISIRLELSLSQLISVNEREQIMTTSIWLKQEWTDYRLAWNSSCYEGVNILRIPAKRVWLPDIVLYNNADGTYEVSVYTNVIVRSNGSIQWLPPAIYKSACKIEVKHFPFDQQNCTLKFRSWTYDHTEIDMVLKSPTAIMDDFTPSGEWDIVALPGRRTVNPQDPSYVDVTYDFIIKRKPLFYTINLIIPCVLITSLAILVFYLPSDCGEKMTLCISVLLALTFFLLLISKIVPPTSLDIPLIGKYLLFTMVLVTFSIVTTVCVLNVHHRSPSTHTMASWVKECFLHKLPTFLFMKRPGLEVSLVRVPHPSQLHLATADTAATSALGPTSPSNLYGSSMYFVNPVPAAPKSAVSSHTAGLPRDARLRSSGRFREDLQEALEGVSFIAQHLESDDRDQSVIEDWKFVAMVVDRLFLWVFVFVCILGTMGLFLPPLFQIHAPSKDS", "assay": "cell-based", "assay_type": "cell-based"}, "[2]": {"settings": "buffer or solvent"}, "[3]": {"target": "human serum albumin (HSA) (Homo sapiens, UniProt P02768)", "sequence (P02768 25-609 limits assumed)": "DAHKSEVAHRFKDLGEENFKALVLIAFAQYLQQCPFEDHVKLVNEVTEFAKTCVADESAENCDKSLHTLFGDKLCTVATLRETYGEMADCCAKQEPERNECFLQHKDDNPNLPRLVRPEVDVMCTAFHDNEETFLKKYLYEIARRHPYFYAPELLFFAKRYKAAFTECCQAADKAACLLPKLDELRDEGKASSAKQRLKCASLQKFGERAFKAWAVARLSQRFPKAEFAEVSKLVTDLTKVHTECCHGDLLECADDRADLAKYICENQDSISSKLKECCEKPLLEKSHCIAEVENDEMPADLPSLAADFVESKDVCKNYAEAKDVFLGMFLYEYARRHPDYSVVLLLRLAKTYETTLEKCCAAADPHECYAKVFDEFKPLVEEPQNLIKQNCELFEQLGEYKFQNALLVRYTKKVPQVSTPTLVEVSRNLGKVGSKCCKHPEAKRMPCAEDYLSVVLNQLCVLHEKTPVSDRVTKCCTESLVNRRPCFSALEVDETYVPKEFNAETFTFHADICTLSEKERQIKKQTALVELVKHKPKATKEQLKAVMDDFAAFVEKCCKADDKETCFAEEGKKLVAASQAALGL", "settings": "pH 7.2"}, "[4]": {"settings": "pH 3"}, "[5]": {"assay": "physchem", "settings": "not applicable"}, "[6]": {"assay": "physchem", "settings": "buffer or solvent"}}}
{"smiles": "CC[C@H](C)[C@@H]1NC(=O)[C@@H]2CCCN2C(=O)[C@H](CO)NC(=O)[C@H](CC[S+](C)[O-])NC(=O)[C@H](C)NC(=O)[C@H](CO)NC(=O)[C@@H]2CSSC[C@H](NC(=O)CN)C(=O)N[C@@H](CSSC[C@@H](C(N)=O)NC1=O)C(=O)N[C@@H](CO)C(=O)N[C@@H](Cc1c[nH]cn1)C(=O)N1CCC[C@H]1C(=O)N[C@@H](C(C)C)C(=O)N2", "note": "(stereo partly shown) [Product I]", "values": [{"measurement": "Hill slope", "setting": "[1]", "value": "0.76 (0.65–0.86)"}, {"measurement": "IC50", "setting": "[1]", "value": 503, "unit": "nM"}, {"measurement": "Response at 100 nM", "setting": "[1]", "value": 15, "unit": "%"}]}
{"smiles": "CC[C@H](C)[C@@H]1NC(=O)[C@@H]2CCCN2C(=O)[C@H](CO)NC(=O)[C@H](CCSC)NC(=O)[C@H](C)NC(=O)[C@H](CO)NC(=O)[C@@H]2CSSC[C@H](NC(=O)CN)C(=O)N[C@@H](CSSC[C@@H](C(N)=O)NC1=O)C(=O)N[C@@H](CO)C(=O)N[C@@H](Cc1cnc[nH]1)C(=O)N1CCC[C@H]1C(=O)N[C@@H](C(C)C)C(=O)N2", "note": "[TxID, α‐Conotoxin TxID]", "values": [{"measurement": "Hill slope", "setting": "[1]", "value": "1.17 (0.87–1.46)"}, {"measurement": "remaining at 8 h", "setting": "[2]", "value": 36, "unit": "%"}, {"measurement": "Globular isomer remaining, % of the total", "setting": "[3]", "value": 75, "unit": "%"}, {"measurement": "Degradation rate constant K obs (50 °C)", "setting": "[4]", "value": "1.01 × 10^−3 1/Mh"}, {"measurement": "Degradation rate constant K obs (60 °C)", "setting": "[4]", "value": "2.42 × 10^−3 1/Mh"}, {"measurement": "Degradation rate constant K obs (70 °C)", "setting": "[4]", "value": "5.54 × 10^−3 1/Mh"}, {"measurement": "Degradation rate constant K obs (80 °C)", "setting": "[4]", "value": "2.02 × 10^−2 1/Mh"}, {"measurement": "E a, activation energy", "setting": "[4]", "value": 27.9842, "unit": "kcal/mol"}, {"measurement": "t0.5, half-life period at 25 °C", "setting": "[4]", "value": 707, "unit": "days"}, {"measurement": "t0.9, validity period at 25 °C", "setting": "[4]", "value": 107, "unit": "days"}, {"measurement": "remaining at 168 h", "setting": "[5]", "value": 95, "unit": "%"}, {"measurement": "remaining at 1 min", "setting": "[6]", "value": 71, "unit": "%"}, {"measurement": "remaining at 16 h", "setting": "[6]", "value": 63, "unit": "%"}]}
